Measurements as given in patent US20230002393A1, “CDK KINASE INHIBITOR” (BEIJING BENICALL BIOTECH CO., LTD., priority 2019, published 2023).

Tests used:
CDK6/CyclinD1 = molecular target: T1, CDK6/CyclinD1 (Homo sapiens, UniProt Q00534); experiment: In vitro cell-free CDK6/CyclinD1 kinase activity assay (TR-FRET); format: biochemical; conditions: ATP at Km
T1 construct: purchased Carna 04-114
Experimental: It should be noted that the assay can also be conducted by a similar method. The assay steps in this Test Example are as follows:
The CDK6/CyclinD1 kinase activity was determined using a time-resolved fluorescence resonance energy transfer (TR-FRET) method. Measurements were performed in a reaction volume of 20 μL using 384-well assay plates. […] The reaction was stopped by adding a mixture of a peptide antibody (trade name: Cisbio, product No. 64CUSKAY) and Sa-XL665 (trade name: Cisbio, product No. 610SAXLB) diluted in HTRF KinEASE detection buffer (trade name: Cisbio, product No. 62SDBRDF, containing EDTA). After the mixture was incubated for 1 hour at room temperature, the plate was read. The TR-FRET signal was measured on a multimode plate reader (EnVision™, a multi-function microplate detector, PerkinElmer) at an excitation wavelength (λEx) of 330 nm and detection wavelengths (λEm) of 615 and 665 nm. The activity was determined by the ratio of fluorescence at 665 nm to that at 615 nm. For each compound, the enzyme activities of different concentrations of the compound were measured to determine IC50. The negative control contained no inhibitor. Two no-enzyme controls were used to determine baseline fluorescence levels. IC50 was obtained by fitting using the GraphPad 6.02 software.
8-10 concentrations were prepared for each compound, and formulated in DMSO. The stock concentration was 200× the working concentration. For example, if the working concentration was 100 nM, the corresponding concentration of the formulated stock solution was 20 μM.
In the analysis of in vitro inhibitory activity on CDK kinase, the IC50 value of each of the Example compounds and Reference Example compounds was determined.

MCF-7 cells = experiment: Cell viability assay, MCF-7 cells (CellTiter-Glo, 168 h); format: cell-based; conditions: Homo sapiens, MCF7
Experimental: An in vitro cell viability assay was conducted using some Example compounds following the steps below:
1. After recovery, MCF-7 cells (obtained from the Shanghai Cell Bank of the Chinese Academy of Sciences) were cultured at 37° C., 5% CO2, and 95% humidity.
2. 8 compound solutions at different concentrations were prepared for each Example compound. 50 μL of the compound solution at each concentration was added to a 96-well black plate.
3. The cell concentration was adjusted to about 30,000 cells/mL. 100 μL of the cell suspension was added to the 96-well plate, and mixed well to a final cell density of about 3,000 cells/well.
4. The 96-well plate was incubated at 37° C., 5% CO2, and 95% humidity for 168 h, i.e., 7 days.
5. The cell survival rate was measured by the method of CellTiter-Glo® Luminescent Cell Viability Assay (Promega, Cat #G7572). The fluorescence data were read on a microplate reader (EnVision™, a multi-function microplate detector, PerkinElmer).
6. The obtained fluorescence data were analyzed using the GraphPad Prism software. The cell survival rate was calculated for each Example compound at each concentration, and the IC50 interval of each Example compound was determined.

T1 sequence (Q00534 whole entry): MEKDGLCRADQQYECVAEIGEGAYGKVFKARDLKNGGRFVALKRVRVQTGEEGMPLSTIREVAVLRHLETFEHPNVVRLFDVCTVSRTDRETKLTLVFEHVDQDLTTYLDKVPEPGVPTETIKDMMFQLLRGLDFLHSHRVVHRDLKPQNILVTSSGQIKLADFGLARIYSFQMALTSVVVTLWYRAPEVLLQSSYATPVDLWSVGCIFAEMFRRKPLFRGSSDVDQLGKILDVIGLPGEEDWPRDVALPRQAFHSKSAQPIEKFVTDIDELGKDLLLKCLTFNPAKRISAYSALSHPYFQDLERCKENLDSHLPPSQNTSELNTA
T1 sequence (P24385 whole entry partner): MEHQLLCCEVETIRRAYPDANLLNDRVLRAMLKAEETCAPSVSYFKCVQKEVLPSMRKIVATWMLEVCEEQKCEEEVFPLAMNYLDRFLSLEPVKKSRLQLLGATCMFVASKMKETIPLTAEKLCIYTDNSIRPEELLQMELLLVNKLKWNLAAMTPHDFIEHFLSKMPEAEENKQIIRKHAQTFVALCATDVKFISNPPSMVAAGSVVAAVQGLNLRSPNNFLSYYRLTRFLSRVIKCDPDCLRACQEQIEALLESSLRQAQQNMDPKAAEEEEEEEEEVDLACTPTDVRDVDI

| SMILES | IC50 (CDK6/CyclinD1) [nM] | IC50 (MCF-7 cells) [nM] |
| --- | --- | --- |
| CN(C)C(=O)c1cc2cnc(Nc3ccc(N4CCNCC4)cn3)nn2c1-c1ccc(F)cc1 [Example 32] | < 100 | < 500 |
| COc1ccccc1-c1c(C#N)cc2cnc(Nc3ccc(N4CCNCC4)cc3)nn12 [Example 10] | < 100 | < 500 |
| COCCOc1ccc(-c2c(C(=O)N(C)C)cc3cnc(Nc4ccc(N5CCNC6(CC6)C5)cn4)nn23)cc1 [Example 47] | < 100 | 2500 to 10000 |
| N#Cc1cc2cnc(Nc3ccc(N4CCNCC4)cc3)nn2c1N1CCC2(CCCCC2)C1 [Example 17] | < 100 | < 500 |
| CN(C)C(=O)c1cc2cnc(Nc3ccc(N4CC5(CCNC5)C4)cn3)nn2c1C1=CCCC1 [Example 39] | < 100 | < 500 |
| COCCOc1ccc(-c2c(C(=O)N(C)C)cc3cnc(Nc4ccc(N5CCC6(CC5)CNC6)cn4)nn23)cc1 [Example 48] | < 100 |  |
| COc1cc(F)ccc1-c1c(-c2cnn(C)c2)cc2cnc(Nc3ccc(N4CCNCC4)cn3)nn12 [Example 53] | 100 to 1000 | 500 to 2500 |
| CN(C)C(=O)c1cc2cnc(Nc3ccc(N4CCC5(CC4)COC5)cn3)nn2c1C1=CCCC1 [Example 38] | < 100 | < 500 |
| O=C1CCCN1c1cc2cnc(Nc3ccc(N4CCNCC4)cn3)nn2c1-c1ccc(Cl)cc1 [Example 51] | 100 to 1000 | 500 to 2500 |
| Cc1noc(C)c1-c1cc2cnc(Nc3ccc(N4CCNCC4)cn3)nn2c1C1=CCCC1 [Example 21] | 100 to 1000 | 500 to 2500 |
| CN(C)C(=O)c1cc2cnc(Nc3ccc(N4CCNCC4)cn3)nn2c1N1CCCCC1 [Example 31] | < 100 | < 500 |
| CN(C)C(=O)c1cc2cnc(Nc3ccc(N4CCNCC4)cn3)nn2c1-c1cccnc1 [Example 36] | 100 to 1000 |  |
| N#Cc1cc2cnc(Nc3ccc(N4CCNCC4)cc3)nn2c1-c1ccc(F)cc1 [Example 13] | < 100 | < 500 |
| COc1ccc(-c2c(C(=O)N(C)C)cc3cnc(Nc4ccc(N5CCNCC5)cn4)nn23)cc1 [Example 42] | < 100 | < 500 |
| CN(C)C(=O)c1cc2cnc(Nc3ccc(N4CCC5(CCNCC5)C4)cn3)nn2c1-c1ccc(Cl)cc1 [Example 43] | < 100 | 500 to 2500 |
| CN(C)C(=O)c1cc2cnc(Nc3ccc(N4CCNCC4)cn3)nn2c1-c1ccc(Cl)cc1 [Example 34] | < 100 | < 500 |
| N#Cc1cc2cnc(Nc3ccc(N4CCNCC4)cn3)nn2c1-c1cccnc1 [Example 27] | 100 to 1000 | 2500 to 10000 |
| CN(C)C(=O)c1cc2cnc(Nc3ccc(N4CC5(CNC5)C4)cn3)nn2c1-c1ccncc1 [Example 61] | < 100 |  |
| CN(C)C(=O)c1cc2cnc(Nc3ccc(N4CCC5(CC4)CNC5)cn3)nn2c1-c1ccncc1 [Example 63] | < 100 |  |
| COc1cc(F)ccc1-c1c(C(=O)N(C)C)cc2cnc(Nc3ccc(N4CCC5(CC4)CNC5)cn3)nn12 [Example 62] | 100 to 1000 |  |
| CN(C)C(=O)c1cc2cnc(Nc3ccc(N4CCNCC4)cn3)nn2c1-c1cnn(C)c1 [Example 56] | 100 to 1000 |  |

Next, values leading:

| IC50 (CDK6/CyclinD1) [nM] | IC50 (MCF-7 cells) [nM] | SMILES |
| --- | --- | --- |
| < 100 | < 500 | CN(C)C(=O)c1cc2cnc(Nc3ccc(N4CCNCC4)cn3)nn2c1C1=CCOCC1 [Example 107] |
| < 100 | < 500 | Cc1ccc(-c2cc3cnc(Nc4ccc(N5CCNCC5)cn4)nn3c2C2=CCCC2)cn1 [Example 89] |
| < 100 | 500 to 2500 | Cn1cc(-c2cc3cnc(Nc4ccc(N5CCNCC5)cn4)nn3c2C2=CCCC2)ccc1=O [Example 73] |
| < 100 | 2500 to 10000 | Cc1ncc(-c2cc3cnc(Nc4ccc(N5CCNCC5)cn4)nn3c2C2=CCCC2)cn1 [Example 78] |
| < 100 | 500 to 2500 | C1=C(c2c(-c3cccs3)cc3cnc(Nc4ccc(N5CCNCC5)cn4)nn23)CCC1 [Example 75] |
| 100 to 1000 | 500 to 2500 | Cn1cc(-c2cc3cnc(Nc4ccc(N5CC6(CCNC6)C5)cn4)nn3c2C2=CCCC2)cn1 [Example 92] |
| < 100 | < 500 | CN1CCN(c2ccc(Nc3ncc4cc(C(=O)N(C)C)c(C5=CCOCC5)n4n3)nc2)CC1 [Example 105] |
| < 100 | 500 to 2500 | C1=C(c2c(-c3cncnc3)cc3cnc(Nc4ccc(N5CCC6(CCNCC6)CC5)cn4)nn23)CCC1 [Example 96] |
| < 100 | < 500 | [2H]C([2H])([2H])N1CCN(c2ccc(Nc3ncc4cc(C(=O)N(C([2H])([2H])[2H])C([2H])([2H])[2H])c(-c5ccc(OC)cc5)n4n3)nc2)CC1 [Example 124] |
| < 100 | < 500 | C1=C(c2c(-c3cnco3)cc3cnc(Nc4ccc(N5CCNCC5)cn4)nn23)CCC1 [Example 111] |
| < 100 | < 500 | [2H]C([2H])([2H])N(C(=O)c1cc2cnc(Nc3ccc(N4CCN(C([2H])([2H])C([2H])([2H])[2H])CC4)cn3)nn2c1C1=CCCC1)C([2H])([2H])[2H] [Example 115] |
| < 100 | < 500 | Cc1cc(-c2cc3cnc(Nc4ccc(N5CCNCC5)cn4)nn3c2C2=CCCC2)ccn1 [Example 90] |
| < 100 | 2500 to 10000 | C1=C(c2c(-c3cnoc3)cc3cnc(Nc4ccc(N5CCNCC5)cn4)nn23)CCC1 [Example 76] |
| < 100 | < 500 | [2H]C([2H])([2H])N1CCN(c2ccc(Nc3ncc4cc(C(=O)N(C([2H])([2H])[2H])C([2H])([2H])[2H])c(C5=CCCC5)n4n3)nc2)CC1 [Example 114] |
| < 100 | < 500 | CCN1CCN(c2ccc(Nc3ncc4cc(C(=O)N(C)C)c(C5=CCCC5)n4n3)nc2)CC1 [Example 103] |
| < 100 | < 500 | [2H]C([2H])([2H])N(C(=O)c1cc2cnc(Nc3ccc(N4CCNCC4)cn3)nn2c1-c1ccc(OC)cc1)C([2H])([2H])[2H] [Example 117] |
| < 100 | 500 to 2500 | CN1CCN(c2ccc(Nc3ncc4cc(-c5cncnc5)c(C5=CCCC5)n4n3)nc2)CC1 [Example 98] |
| < 100 |  | Cn1cc(-c2cc3cnc(Nc4ccc(N5CCNCC5)cn4)nn3c2N2CCOCC2)cn1 [Example 79] |
| > 3000 |  | COc1ccc(-c2c(-c3cnn(C)c3)c(-c3ccc(OC)cc3)n3nc(Nc4ccc(N5CCNCC5)cn4)ncc23)cc1 [Reference Example 129, reference compound] |
| < 100 |  | Cn1ccc(-c2cc3cnc(Nc4ccc(N5CCNCC5)cn4)nn3c2C2=CCCC2)cc1=O [Example 80] |
| < 100 |  | CN(C)C(=O)c1cc2cnc(Nc3ccc(N4CC5(CNC5)C4)cn3)nn2c1-c1cnn(C)c1 [Example 66] |
| < 100 |  | CN(C)C(=O)c1cc2cnc(Nc3ccc(N4CC5(CCNC5)C4)cn3)nn2c1-c1cnn(C)c1 [Example 70] |
| 100 to 1000 |  | Cc1nn(C)cc1-c1c(C(=O)N(C)C)cc2cnc(Nc3ccc(N4CC5(CNC5)C4)cn3)nn12 [Example 67] |
| 1000 to 3000 |  | Cn1cc(-c2c(C3=CCCC3)c3cnc(Nc4ccc(N5CCNCC5)cn4)nn3c2C2=CCCC2)cn1 [Reference Example 130, reference compound] |
| 100 to 1000 |  | Cn1cc(-c2cc3cnc(Nc4ccc(N5CCNCC5)cn4)nn3c2C2=CCCC2)ncc1=O [Example 77] |
| 100 to 1000 |  | CN(C)C(=O)c1cc2cnc(Nc3ccc(N4CCC5(CC4)CNC5)cn3)nn2c1-c1cnn(C)c1 [Example 64] |
